Test results published in ChEMBL document CHEMBL1136916, “Discovery of new S-adenosylmethionine decarboxylase inhibitors for the treatment of Human African Trypanosomiasis (HAT)” (Bioorg Med Chem Lett, 2009).
The source made the active and inactive calls. No cut-off for these calls is given here.

Assays:
[1] = test system: Trypanosoma brucei; test: Inhibition of Trypanosoma brucei AdoMetDC assessed as ratio of Kinact to Ki(apparent)
[2] = test system: Trypanosoma brucei rhodesiense; test: Antitrypanosomal activity against Trypanosoma brucei rhodesiense; assay type: functional, organism-based
[3] = test system: Trypanosoma brucei brucei; test: Antitrypanosomal activity against Trypanosoma brucei brucei; assay type: functional, organism-based
[4] = AUC in blood of single dose ip administered mouse; assay type: ADME, organism-based
[5] = Half life in single dose ip administered mouse; assay type: ADME, organism-based; conditions: in vivo
[6] = AUC in brain of single dose ip administered mouse; assay type: ADME, organism-based
[7] = Cmax in blood of single dose ip administered mouse; assay type: ADME, organism-based; parameters: route intraperitoneal
[8] = Cmax in brain of single dose ip administered mouse; assay type: ADME, organism-based; parameters: route intraperitoneal
[9] = test system: Trypanosoma brucei brucei; test: Antitrypanosomal activity against Trypanosoma brucei brucei infected mouse assessed as reduction in parasitemia; assay type: functional, organism-based
[10] = Distribution coefficient, log D at pH 7.4 by shake flask method; assay type: physicochemical; conditions: octanol/water

SMILES	Ratio [1]	IC50 [2]	IC50 [3]	also measured
Cc1nc2c(N)ncnc2n1[C@@H]1O[C@H](CN(C)C/C=C\CN)[C@@H](O)[C@H]1O	7.78	1 nM	27 nM	AUC [4]: 17900 ng·h/mL; half-life [5]: 7.43 h; AUC [6]: 1300 ng·h/mL; Cmax [7]: 36900 ng/mL; Cmax [8]: 660 ng/mL; Activity [9]: Active
CN(C/C=C\CN)C[C@H]1O[C@@H](n2cnc3c(N)ncnc32)[C@@H](F)[C@@H]1O	0.19	2600 nM	> 14000 nM	
CCc1nc2c(N)ncnc2n1[C@@H]1O[C@H](CN(C)C/C=C\CN)[C@@H](O)[C@H]1O			900 nM	
CN(C/C=C\CN)C[C@H]1O[C@@H](n2cnc3c(N)ncnc32)[C@H](O)[C@@H]1O	1.5	11 nM	210 nM	Activity [9]: Active; logD [10]: -1.8
CCCc1nc2c(N)ncnc2n1[C@@H]1O[C@H](CN(C)C/C=C\CN)[C@@H](O)[C@H]1O			11000 nM	

Now from value to compound, other results behind:

Ratio [1]	IC50 [2]	IC50 [3]	SMILES	also measured
0.19	1400 nM	> 14000 nM	CN(C/C=C\CN)C[C@H]1O[C@@H](n2cnc3c(N)ncnc32)[C@H](F)[C@@H]1O	
0.02	1700 nM	7270 nM	CN(C/C=C\CN)C[C@H]1O[C@@H](n2cnc3c(N)nc(Cl)nc32)[C@H](O)[C@@H]1O	
		> 14000 nM	Cc1nc(N)c2ncn([C@@H]3O[C@H](CN(C)C/C=C\CN)[C@@H](O)[C@H]3O)c2n1	
